# Experimental data taken from US20140179678A1, “METHODS OF TARGETED TREATMENT OF FRONTOTEMPORAL LOBAR DEGENERATION” (priority 2011, published 2014).
# Read-outs that look alike come from different tables or passages of the source.
# What was measured:
# [1] = system: acetylation of histones in the brain; assay: Acetylation of histones in the brain of mice, required free plasma exposure; assay type: in vivo
# [2] = cancer patients, oral; cited from earlier work
# [3] = Brain penetration (brain:plasma ratio of drug levels) after acute and repeated dosing; assay type: in vivo; settings: rodents
# [4] = system: progranulin protein in lymphoblasts from progranulin mutation carriers; assay: Progranulin protein expression in FTLD patient lymphoblast cell lines (ELISA); assay type: cell-based, human; settings: 3 μM, after 24 h
# Method: (§1) Immortalized (Epstein-Barr-Virus) B-lymphocytes isolated from the peripheral blood of patients subject harboring different mutations in the granulin gene were used to measure effects of compounds on progranulin mRNA and protein expression. The cell lines were maintained in complete growth medium (cGM), comprised of RPMI 1640 medium supplemented with 15% heat-inactivated FBS, 4 mM L-Glutamine and 1% Penicillin/Streptomycin. Cells were seeded into 24-well tissue-culture plates at a density of 400,000-500,000 cells per well in cGM. Following an overnight incubation, the cells were treated with 0.3 or 3 μM of Compound 1. Following an 8- or 24-hour exposure to Compound 1, cells were collected, spun, and the resulting cell pellets underwent a single rinse in chilled PBS.
# (§2) For analysis of progranulin protein expression, cell pellets were re-suspended in 150 μl of chilled RIPA Lysis Buffer supplemented with a protease-inhibitor cocktail and incubated for 15-20 minutes at 4° C. to allow for cell lysis. Total protein concentrations of each sample were determined by performing a BCA protein assay (Pierce). Quantitative determination of Progranulin protein levels was performed by ELISA (AdipoGen, Incheon, South Korea), using a 1:20 dilution of the cell lysate following the manufacturer protocol. […]
# [5] = system: progranulin protein in rat primary cortical neurons; assay: Progranulin protein expression in rat primary cortical neurons (ELISA); assay type: cell-based; settings: 3 μM, after 8 h
# Method: (§3) Primary cortical (Cx) and hippocampal (Hp) neurons are derived from E17 Sprague-Dawley rats and cultured in 24-well plates (325,000 cells/well for Cx and 250,000 cells/well for Hp). Half of the medium is replaced with fresh medium every four days. On day 10 of culture, neurons are incubated in the presence of different concentrations (0.1-3 μM) of a compound of the invention, e.g., Compound 1, for 2-24 h. At specific time points, conditioned medium is removed and frozen until needed for ELISA assay. Cells are washed with PBS and RNA is extracted with Qiazol reagent using the RNeasy kit from Qiagen (Valencia, Calif.) following manufacturer instructions. RNA is then transcribed into cDNA using the high capacity cDNA reverse transcription kit from Applied Biosystems (Carlsbad, Calif.) according to kit instructions.
# as §2
# [6] = system: progranulin protein in primary fibroblasts from progranulin mutation carriers; assay: Progranulin protein expression in primary fibroblasts from progranulin mutation carriers (ELISA); assay type: cell-based, human; settings: 0.3 μM, after 8 h
# Method: For analysis of progranulin protein expression, cell pellets were re-suspended in 150 μl of chilled RIPA Lysis Buffer supplemented with a protease-inhibitor cocktail and incubated for 15-20 minutes at 4° C. to allow for cell lysis. Total protein concentrations of each sample were determined by performing a BCA protein assay (Pierce). Quantitative determination of Progranulin protein levels was performed by ELISA (AdipoGen, Incheon, South Korea), using a 1:20 dilution of the cell lysate following the manufacturer protocol. Progranulin levels were expressed relative to protein amount, and compound treatment groups were expressed relative to the vehicle-treated group.
# (§4) Primary fibroblasts from patients harboring different mutations in the progranulin gene were isolated and maintained in complete growth medium (cGM), comprised of D-MEM supplemented with 10% heat-inactivated FBS and 1% Penicillin/Streptomycin. The fibroblasts were seeded into 6-well tissue-culture plates at a density of 150,000-190,000 cells per well in cGM. Following overnight incubation, the cells were treated with 0.3 or 3 μM of Compound 1. Analysis of progranulin mRNA expression was performed as described in Example 4. Analysis of progranulin protein was performed as described in Example 4.
# [7] = system: progranulin mRNA in cerebral cortex; assay: Progranulin mRNA expression in mouse cerebral cortex (qPCR); assay type: in vivo, C57BL/6 mice; settings: normal mice, 100 mg/kg oral, 8 h after acute dosing
# Method: (§5) C57BL/6 mice (n=6/group; Charles River) were treated with either vehicle (1% carboxymethylcellulose-medium viscosity/0.5% Tween 80 (99.5:0.5 v/v)) or with an oral dose of 100 mg/kg of Compound 1 prepared in the same vehicle. Animals were sacrificed at specific time points and the brain extracted. Left and right hemisphere of the cerebral cortex were separated and used for RNA and protein extractions.
# RNA was extracted with Qiazol reagent using the RNeasy lipid-rich tissue kit from Qiagen (Valencia, Calif.) following manufacturer instructions. RNA was then transcribed into cDNA using the high capacity cDNA reverse transcription kit from Applied Biosystems (Carlsbad, Calif.), according to kit instructions. Relative progranulin gene expression was measured by quantitative PCR using mouse-specific probes (Applied Biosystems, Carlsbad, Calif.) for the granulin gene, and for Rp113a as a reference gene. The ΔΔCt method was used for calculations of relative gene expression levels (Pfaffl, Nucleic Acids Res., 2001). This method compares expression of the different genes (reference and gene of interest) in animals treated with vehicle versus the compound of the invention (FIG. 5A).
# [8] = system: progranulin mRNA in lymphoblasts from progranulin mutation carriers; assay: Progranulin mRNA expression in FTLD patient lymphoblast cell lines (qPCR); assay type: cell-based, human; settings: 3 μM, after 24 h
# Method: as §1
# (§6) For analysis of progranulin mRNA expression, samples were analyzed as described in Example 1, with the exception that probes specific for the human granulin gene (Applied Biosystems, Carlsbad, Calif.) were used.
# [9] = system: progranulin mRNA in primary fibroblasts from progranulin mutation carriers; assay: Progranulin mRNA expression in primary fibroblasts from progranulin mutation carriers (qPCR); assay type: cell-based, human; settings: 3 μM, after 8 h
# Method: as §6, §4
# [10] = system: progranulin protein in immortalized lymphoblasts from a normal human subject; assay: Progranulin protein by western blot in immortalized lymphoblasts from a normal human subject; assay type: cell-based; settings: 24 h
# Method: Cellular protein from immortalized (Epstein-Barr-Virus) B-lymphocytes isolated from the peripheral blood of normal human volunteers was isolated as described in Example 4. Cells were treated with Compound 1 for 24 h. For Western Blotting analysis of progranulin protein, 50 μg of total cellular protein were separated on a 4-12% Bis-Tris Poly-Acrylamide gel using MOPS Running Buffer, transferred to a PVDF membrane and probed with a R & D Systems (Minneapolis, Minn.) mouse monoclonal anti-human progranulin antibody, followed by an IRDye secondary antibody (Rockland). Detection was performed using the Li-COR Odyssey imaging system. Progranulin signals (Integrated Intensity after background subtraction) were quantified using Li-COR Odyssey software.
# [11] = system: progranulin protein in cerebral cortex; assay: Progranulin protein levels in mouse cerebral cortex (ELISA); assay type: in vivo, C57BL/6 mice; settings: normal mice, 100 mg/kg oral, 8 h after acute dosing
# Method: as §5
# Proteins were extracted in 50 mM Tris pH 7.4/150 mM NaCl/0.1% SDS with protease inhibitors using an extraction ratio of 200 mg of brain tissue per ml buffer. Sample was spun for 20 minutes at 16,200 g and supernatant collected. Progranulin levels were measured using a 1:4 dilution of the tissue extract (FIG. 5B) with a mouse ELISA kit from Adipogen (Incheon, South Korea) according to the manufacturer instructions. Progranulin levels were normalized to total protein concentration as measured by the BCA method (Pierce).
# [12] = Maximum Tolerated Dose in humans, oral dosing; assay type: in vivo; settings: healthy volunteers
# [13] = system: progranulin protein in CSF and plasma; assay: Progranulin levels in rat CSF and plasma (ELISA); assay type: in vivo, Sprague Dawley rats; settings: normal rats, 100 mg/kg intra-peritoneally
# Method: Sprague Dawley rats (n=12/group; Charles River) were dosed intra-peritoneally with either vehicle (Solutol HS 15/Ethanol (3:2 v/v)) or with a dose of 100 mg/kg of Compound 1 prepared in the same vehicle. EDTA-Plasma and CSF were collected after 4 and 8 hours of treatment, and progranulin levels were assessed by ELISA (Adipogen, Incheon, South Korea) using a 1:2 dilution for CSF (FIG. 6A) and a 1:25 dilution for plasma (FIG. 6B).
# [14] = system: progranulin mRNA expression in primary cortical neurons; assay: Progranulin mRNA expression by quantitative PCR in primary cortical neurons; assay type: cell-based, rat; settings: for increase in progranulin mRNA expression: after 8 h of treatment, primary cortical neurons
# Method: as §3
# Relative progranulin gene expression is measured by quantitative PCR using rat-specific probes (Applied Biosystems, Carlsbad, Calif.) for the granulin gene and for Rp113a as a reference gene. The ΔΔCt method is used for calculations of relative gene expression levels (Pfaffl, Nucleic Acids Res., 2001). This method compares expression of the different genes (reference and gene of interest) in cells treated with vehicle versus the compound of the invention. Moreover, this measurement and analysis of mRNA levels is expected to be predictive of the expression of progranulin protein levels.
# Neuronal granulin gene expression was measured at different time points as described in Example 1 (1, 4, 6, 8, 10, 18 and 24 h) following treatment with (Z)-4-(dibenzo[b,f][1,4]oxazepin-11-yl)-N-hydroxybenzamide
Compound,"excess of plasma protein unbound ('free') drug required to produce acetylation of histones in the brain, compared to Compound 1 [1]",Maximum Tolerated Dose (MTD) [2],"Kp ([3]; acute dosing experiments, read-out: brain:plasma (b:p) ratio)",increase in progranulin protein expression [4],increase in progranulin protein expression [5],increase in progranulin protein expression [6],increase in progranulin mRNA in brain (cerebral cortex) [7],"Kp ([3]; acute and repeated dosing, read-out: brain:plasma (b:p) ratio for drug levels)",increase in progranulin mRNA [8],increase in progranulin mRNA [9],increase in progranulin protein (western blot) ([10]; 0.3 μM),increase in progranulin protein (western blot) ([10]; 3 μM),increase in progranulin protein levels in brain (cerebral cortex) [11],"Maximum Tolerated Dose (MTD), not observed at highest dose used [12]",increase in CSF progranulin protein ([13]; 4 h after acute dosing),increase in plasma progranulin protein levels ([13]; concomitantly (4 h after acute dosing)),increase in progranulin mRNA expression ([14]; 0.3 μM),increase in progranulin mRNA expression ([14]; 3 μM),"increase in progranulin gene expression ([14]; lowest dose (0.1 μM), as soon as 4 h after treatment, sustained for 24 h)"
O=C(CCCCCCC(=O)Nc1ccccc1)NO [SAHA],~30 fold,400 mg,~0.1,,,,,,,,,,,,,,,,
"O=C(NO)c1ccc(C2=Nc3ccccc3Oc3ccccc32)cc1 [Compound 1, (Z)-4-(dibenzo[b,f][1,4]oxazepin-11-yl)-N-hydroxybenzamide]",,,,1.5 fold,1.77 fold,1.1 fold,1.45 fold,~5,2.4 fold,1.3 fold,1.3 fold,1.6 fold,about 1.16 fold,> 400 mg,about 1.9 fold,about 1.4 fold,~2 fold,~5 fold,~40%
